Results on two compounds are retold here after ChEMBL document CHEMBL1137519, “Elucidation of the RNA target of linezolid by using a linezolid-neomycin B heteroconjugate and genomic SELEX” (Bioorg Med Chem, 2007).

Broadly, the Kd is the free concentration of one partner at which half of the binding sites on the other are occupied at equilibrium, for simple one-to-one binding. A higher Kd goes with lower affinity.

Experiment [1] is described as follows: Binding affinity to Escherichia coli K12 stem-loop region L2-11 RNA aptamers using BIAcore 3000 instrument.
Experiment [2] is described as follows: Binding affinity to Escherichia coli K12 stem-loop region L2-10 RNA aptamers using luminescence spectrometer by anisotropy technique.
Experiment [3] is described as follows: Binding affinity to Escherichia coli K12 stem-loop region L2-12 RNA aptamers using BIAcore 3000 instrument. In general terms: In SPR one partner is held on a chip, and binding of the other changes the refractive index at the surface.
A short description of experiment [4]: Binding affinity to Escherichia coli K12 stem-loop region L2-11 RNA aptamers using luminescence spectrometer by anisotropy technique.
The nature of experiment [5]: Binding affinity to Escherichia coli K12 stem-loop region L2-12 RNA aptamers using luminescence spectrometer by anisotropy technique.

On to `CC(=O)NC[C@@H]1CN(c2ccc(N3CCN(C(=O)CSCCCCCCSC[C@@H]4O[C@H](O[C@@H]5[C@@H](O)[C@H](N)C[C@H](N)[C@H]5O[C@H]5O[C@H](CN)[C@@H](O)[C@H](O)[C@H]5N)[C@@H](O)[C@H]4O[C@@H]4O[C@H](CN)[C@H](O)[C@@H](O)[C@@H]4N)CC3)c(F)c2)C(=O)O1`, for which the Kd stood at 960 nM in experiment [1]; 90 nM in experiment [2]; 670 nM in experiment [3]; 260 nM in experiment [4]; 66 nM in experiment [5].
For `NC[C@@H]1O[C@H](O[C@H]2[C@@H](O)[C@H](O[C@@H]3[C@@H](O)[C@H](N)C[C@H](N)[C@H]3O[C@H]3O[C@H](CN)[C@@H](O)[C@H](O)[C@H]3N)O[C@@H]2CO)[C@H](N)[C@@H](O)[C@@H]1O` (stereo in doubt) [FRAMYCETIN], in that order: 6300 nM, 308 nM, 2300 nM, 313 nM and 320 nM.
